Measurements published in US20080312435A1, “Imine Compound” (TAISHO PHARMACEUTICAL CO., LTD., priority 2004, published 2008).

Experiments:
[1] = molecular target: T1, human CB1 receptor (Homo sapiens, UniProt P21554); experiment: Human CB1 receptor binding inhibition test; conditions: CHO-DHFR(−) cells stably expressing human CB1 receptor, same manner as Experimental Example 1
T1 construct: expressed in transfected cells
Method: Human CB1 Receptor Binding Inhibition Test
The CHO-DHFR(−) cells capable of stably expressing a CB1 receptor were prepared in the same manner as in Experimental Example 1. The binding test to the human CB1 receptor was performed to obtain 50% inhibitory concentration (IC50 value) of a test compound.

[2] = molecular target: T2, human CB2 receptor (Homo sapiens, UniProt P34972); experiment: Human CB2 receptor binding inhibition test ([3H]CP-55,940, CHO membrane fractions); conditions: [3H]CP-55,940, membrane fractions of CHO cells stably expressing human CB2 receptor, 25° C., 2 hours; read-out: CB2 IC50 (Inhibition of binding to human CB2 receptor)
T2 construct: expressed in transfected cells
In short: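 Membranes from CHO-DHFR(−) cells stably expressing human CB2 used for [3H]CP-55,940 binding; filter-bound radioactivity counted by scintillation after washes with 0.1% BSA buffer. Nonspecific binding defined with 2.0 μM CP-55,940; IC50 for inhibition of specific binding.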

T1 sequence (P21554 whole entry): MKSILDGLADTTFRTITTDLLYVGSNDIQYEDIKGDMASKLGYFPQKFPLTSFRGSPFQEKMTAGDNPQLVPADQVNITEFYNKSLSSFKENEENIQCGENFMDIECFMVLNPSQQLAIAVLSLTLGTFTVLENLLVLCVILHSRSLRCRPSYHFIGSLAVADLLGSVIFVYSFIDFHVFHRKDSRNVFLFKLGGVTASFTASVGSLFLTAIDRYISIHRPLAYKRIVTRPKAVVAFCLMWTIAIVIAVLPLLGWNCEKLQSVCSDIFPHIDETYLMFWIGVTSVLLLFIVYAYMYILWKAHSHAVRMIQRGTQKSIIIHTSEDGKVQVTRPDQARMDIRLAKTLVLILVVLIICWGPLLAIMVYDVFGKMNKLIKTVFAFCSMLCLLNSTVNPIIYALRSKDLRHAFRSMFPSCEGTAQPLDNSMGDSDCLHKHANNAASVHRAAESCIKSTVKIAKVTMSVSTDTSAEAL
T2 sequence (P34972 whole entry): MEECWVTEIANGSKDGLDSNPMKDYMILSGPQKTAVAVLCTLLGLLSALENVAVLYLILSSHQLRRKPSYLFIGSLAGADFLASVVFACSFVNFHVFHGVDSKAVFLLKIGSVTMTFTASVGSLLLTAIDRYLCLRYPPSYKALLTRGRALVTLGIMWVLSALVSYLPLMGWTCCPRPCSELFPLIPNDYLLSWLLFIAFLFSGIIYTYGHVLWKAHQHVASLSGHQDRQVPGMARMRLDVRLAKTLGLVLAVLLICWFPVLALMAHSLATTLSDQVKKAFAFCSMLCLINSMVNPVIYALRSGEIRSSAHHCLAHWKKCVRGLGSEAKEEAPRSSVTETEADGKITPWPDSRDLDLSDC

Structure (SMILES)	IC50 [1]	IC50 [2]	melting point
CCOCCn1/c(=N/C(=O)c2cccc(Cl)c2Cl)cc(C(C)(C)C)n1C [compound 486]	211 nM	5.1 nM	145 to 146 °C
Cc1c(C(C)(C)C)s/c(=N\C(=O)c2c(F)cccc2C(F)(F)F)n1CC1CC1 [compound 256]	102 nM	1.1 nM	128 to 130 °C
COc1ccc(C(=O)/N=c2\sc(C(C)(C)C)c(C)n2CC2CC2)c(C)c1 [compound 261]	375 nM	1 nM	95 to 96 °C
COc1cccc(C(=O)/N=c2\sc(C(C)(C)C)c(C)n2CC2CC2)c1OC [compound 235]	315 nM	3.4 nM	93 to 94 °C
Cc1c(C(C)(C)C)s/c(=N\C(=O)c2cc(Cl)ccc2Cl)n1CC1CC1 [compound 232]	211 nM	0.5 nM	129 to 131 °C
Cc1c(C(C)(C)C)s/c(=N\C(=O)c2nc(Cl)ccc2Cl)n1CC1CC1 [compound 306]	68 nM	0.5 nM	143 to 145 °C
COc1ccc(Cl)cc1C(=O)/N=c1\sc(C(C)(C)C)c(C)n1CC1CC1 [compound 265]	100 nM	1 nM	98 to 100 °C
Cc1c(C(C)(C)C)s/c(=N\C(=O)c2c(C(F)(F)F)ccc(Cl)c2F)n1CC1CC1 [compound 289]	136 nM	0.5 nM	182 to 183 °C
CCOCCn1/c(=N/C(=O)c2cccc(Br)c2C)cc(C(C)(C)C)n1C [compound 491]	172 nM	9.3 nM	125 to 126 °C
Cc1c(C(C)(C)C)s/c(=N\C(=O)c2ccc(F)cc2Br)n1CC1CC1 [compound 229]	263 nM	1 nM	126 to 128 °C
CCOCCn1/c(=N/C(=O)c2cccc(Cl)c2C)cc(C(C)(C)C)n1C [compound 490]	291 nM	10 nM	127 to 128 °C
Cc1c(C(C)(C)C)s/c(=N\C(=O)C2CCCCC2)n1CC1CC1 [compound 332]	98 nM	3.3 nM	141 to 142 °C
Cc1c(C(C)(C)C)s/c(=N\C(=O)c2cccc(C(F)(F)F)c2Cl)n1CC1CC1 [compound 258]	19 nM	0.6 nM	93 to 94 °C
Cc1ccnc(C)c1C(=O)/N=c1\sc(C(C)(C)C)c(C)n1CC1CC1 [compound 299]	28 nM	2.8 nM	156 to 157 °C
Cc1c(Br)cccc1C(=O)/N=c1\sc(C(C)(C)C)c(C)n1CC1CC1 [compound 245]	32 nM	0.8 nM	89 to 90 °C
CCOCCn1/c(=N/C(=O)c2cccc(C)c2Br)cc(C(C)(C)C)n1C [compound 487]	248 nM	9.9 nM	166 to 167 °C
COc1ccc(F)cc1C(=O)/N=c1\sc(C(C)(C)C)c(C)n1CC1CC1 [compound 262]	435 nM	0.6 nM	87 to 89 °C
Cc1c(Cl)cccc1C(=O)/N=c1\sc(C(C)(C)C)c(C)n1CC1CC1 [compound 243]	73 nM	0.4 nM	88 to 90 °C
Cc1c(C(C)(C)C)s/c(=N\C(=O)c2c(Cl)ccc3cc(Cl)cnc23)n1CC1CC1 [compound 327]	55 nM	3.6 nM	172 to 174 °C
Cc1c(C(C)(C)C)s/c(=N\C(=O)c2ccccc2C(C)C)n1CC1CC1 [compound 182]	22 nM	0.3 nM	168 to 169 °C
Cc1c(C(C)(C)C)s/c(=N\C(=O)c2ccccc2C(F)(F)F)n1CC1CC1 [compound 183]	138 nM	0.5 nM	90 to 91 °C
CCOc1ccc(C(=O)/N=c2\sc(C(C)(C)C)c(C)n2CC2CC2)c(OCC)c1 [compound 237]	200 nM	13.1 nM	116 to 118 °C
